Measurements reported in US20250042983A1, “ANTI-LCN-2 ANTIBODIES AS A TREATMENT FOR EYE DISORDERS” (UNIVERSITY OF PITTSBURGH - OF THE COMMONWEALTH SYSTEM OF …, priority 2021, published 2025).
Entries after “also recorded” stand apart in the source; their conditions may differ.

Assays:
ARPE19 cells [1] = test: Estimation of autophagosome number in RPE cells (GFP-RFP-LC3 puncta); type: cell-based, human; conditions: chloroquine as positive control
Procedure: The cells were then treated with 10^7 vg/ml of an Ad-LCN-2 construct (as described above) for 48 h. […] Confocal images were acquired at 60× using Nikon NIS Elements v5.3(Nikon, Melville NY). 3D spot detection was used to segment positive structures for size, shape and intensity for RFP/GFP, and RFP only puncta were identified.

Cryba1 KO RPE explants = test: Rescue experiments in RPE explants exposed to FAC and Ad-LCN-2 (Western blot, ROS); type: cell-based, mouse; conditions: pre-treatment, then FAC and Ad-LCN-2
Excerpt: RPE explant culture was done as previously described (Shang et al., Commun. Biol., 4(1): 850 (2021)). Briefly, eyeballs were enucleated from WT, Cryba1 KO, Sting KO or Sting^GT mice respectively, immediately after euthanasia by putting in CO2 chamber. The posterior eyecups were cut into four petals after the removal of anterior segments and the neural retina was carefully removed. The resulting RPE-Choroid-Sclera (RCS) complexes were flattened onto PVDF membranes with the RPE cells facing up and cultured as previously described. For experiments involving iron regulation, RPE explants from different genotypes were cultured in presence of ferric ammonium citrate (FAC, Sigma Aldrich, RES20400-A702X) at a dose of 250 μM for 72 h (Hadziahmetovic et al., Am. J Pathol., 179(1): 335-48 (2011)); Chothe et al., Biochem. Biophys. Res. Commun., 405(2): 244-9 (2011)), Adenovirus-LCN-2 (10^7 vg/ml, Ad-LCN-2, Vector Biolabs, ADV-263329) construct for 48 h and with or without chloroquine (ChQ; Sigma Aldrich, C6628-25G), a lysosomal blocker at a dose of 50 μM for the last 6 h of the experimental duration. For rescue experiments, Cryba1 KO explants were cultured and pre-treated with either Def (100 μM for 24 h; Sigma Aldrich, D9533-1G) or Sting inhibitor (H-151; 1 μM for 6 hours; Invitrogen, inh-h151) which was followed by FAC and Ad-LCN-2 treatment as explained above.
Whole cells lysates were made from RPE cells harvested from Cryba1^fl/fl or Cryba1 cKO mice or from in vitro RPE flat mount cultures from different experimental conditions as explained previously. The lysates were either made in 1×RIPA buffer (EMD Milipore, Cat #20-188) or NATIVE lysis buffer (Abcam, ab156035) containing 0.1% of a protease inhibitor cocktail (Sigma Aldrich, 13786) and 0.1% phosphatase inhibitor cocktail (Sigma Aldrich, P0044-5ML). The protein extracts were subjected to quantification by using the Pierce BCA Protein Assay Kit (Thermo Fisher, 23225). The RIPA protein samples were mixed with 4× protein sample buffer (Life Technologies, NP0007) containing 5% 2-mercaptoethanol (Sigma Aldrich, M6256) and heated at 95° C. for 10 min to denature. The native protein samples were mixed with NATIVE sample buffer (Bio-Rad, 1610738) at a 1:1 ratio. The native samples were loaded on NATIVE-PAGE gels (Thermo Fisher, BN1002BOX) and run using NATIVE-PAGE running buffer (Thermo Fisher, BN2001). Samples were loaded onto a 4-12% Bis-Tris Nu-PAGE gel (Invitrogen, NP0323BOX) and run with MES buffer (Invitrogen, NP0002). Proteins were transferred to nitrocellulose membranes (Invitrogen, 1B23001), which were then blocked in 5% blocking grade skim milk (Bio-Rad, 170-6404) or 5% BSA (Sigma Aldrich, A3912-50G) for phosphorylated proteins. The membranes were incubated with the appropriate primary antibody overnight followed by horseradish peroxidase-conjugated anti-rabbit (KPL, 074-1506) or anti-mouse (KPL, 074-1806) secondary antibodies for 1 h at RT. A chemiluminescence development technique was utilized to develop the blots (GE Healthcare, RPN2209) and the blots were imaged using the Azure imaging system (Azure Biosystems, USA). […]
The ROS generation in 10-month-old RPE cells from Cryba1^fl/fl and Cryba1 cKO mice was evaluated as described previously (Ghosh et al., Cell Signal., 68: 109521 (2020)). […]

ARPE19 cells [2] = test: Live cell imaging of lipid peroxidation with liperfluo dye; type: cell-based, human
Procedure: To assess the levels of lipid peroxidation in RPE cells, ARPE19 cells were cultured on four chambered dishes (VWR, 627871) and then either left untreated (control) or treated with 250 μM of ferric ammonium citrate (FAC) for 72 h to mimic the increased iron levels in vivo, followed by Ad-LCN-2 (10^7 vg/ml) for the last 48 h and chloroquine (50 μM) for the last 6 h of the experimental duration respectively. RSL3 (3 μM, overnight; Cayman Chemicals, 19288) was used as a positive control for ferroptosis activation. The clone #6 monoclonal antibody targeting LCN-2 (mAb; 1 μg/ml, 24 h) antibody and 25 μM (overnight) of ferrostatin-1 (Cayman Chemicals, 17729) were added to the culture to rescue ferroptosis induction in the RPE cells. Prior to imaging, the cells were incubated with Liperfluo (10 μM, Fisher Scientific, L24810) for 30 min, and washed twice with PBS before replacing the original media in each chamber. […] Liperfluo was excited using a diode-pumped light engine (SPECTRA X, Lumencor) and detected using an Prime95b sCMOS camera (Photometrics) and excitation and emission filters from Chroma. […] Data was collected and liperfluo emissions were analyzed using NIS Elements (Nikon, Inc. Melville, NY).

Human ATG4B [3] = biological target: T1, Human ATG4B (Homo sapiens, UniProt Q9Y4P1); test: Cell free ATG4B activity assay (LC3-GST cleavage); type: biochemical; conditions: ATG4B 0.5 μg/ml, LCN-2 1.0 μg/ml, 15 minutes; listed as human recombinant LCN-2
T1 construct: purchased Abcam ab188707
T1 sequence (Q9Y4P1 1-393): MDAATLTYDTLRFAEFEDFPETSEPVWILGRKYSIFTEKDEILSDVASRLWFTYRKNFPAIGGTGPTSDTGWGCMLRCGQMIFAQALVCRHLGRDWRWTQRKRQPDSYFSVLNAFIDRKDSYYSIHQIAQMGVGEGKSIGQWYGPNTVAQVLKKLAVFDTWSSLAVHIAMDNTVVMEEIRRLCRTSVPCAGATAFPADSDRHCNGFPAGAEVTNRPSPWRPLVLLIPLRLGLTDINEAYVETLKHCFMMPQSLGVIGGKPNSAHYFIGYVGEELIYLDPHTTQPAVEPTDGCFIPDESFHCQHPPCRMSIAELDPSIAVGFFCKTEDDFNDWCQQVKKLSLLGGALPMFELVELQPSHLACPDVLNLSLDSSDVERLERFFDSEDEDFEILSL
Procedure: ATG4B activity assay was measured by incubating recombinant human LC3-GST (Enzo, BML-UW1155-0500) at a dose of 20 μg/ml with 0.5 μg/ml of human ATG4B (Abcam, ab188707) with or without human LCN-2 (R&D Systems, 1757-LC-050) at a dose of 1 μg/ml for 15 min at room temperature (Pengo et al., Nat. Commun., 8(1): 294 (2017)). The protein samples were then mixed with 4× protein sample buffer (Life Technologies, NP0007) containing 5% 2-mercaptoethanol (Sigma Aldrich, M6256) and heated at 95° C. for 10 min to denature. The samples were then subjected to Western blot using the anti-GST primary antibody (Cell Signaling USA, 2622S) as previously explained (Ghosh et al., J. Pathol., 241(5): 583-588 (2017); Shang et al., Aging Cell, 16(2): 349-359 (2017)).

Human ATG4B [4] = biological target: T1, Human ATG4B; test: Thermal shift assay with sypro orange; type: binding; conditions: ATG4B incubated with human LCN-2, vs ATG4B only
Procedure: (§1) Changes in melting temperature (Tm) was assessed to evaluate the binding propensity of LCN-2 and ATG4B. Human ATG4B (Abcam, ab188707) at a dose of 0.5 μg/ml with or without 1 μg/ml of human LCN-2 (R&D Systems, 1757-LC-050) and 5 μM sypro orange (Thermo Fisher, S-6650) were incubated for 30 min at 4° C. The change in Tm was evaluated in a quantitative PCR machine (ABI Systems, USA) using a previously published method (Huynh et al., Curr. Protoc. Protein Sci., 79: 28.9.1-28.9.14 (2015); Layton et al., Protein Sci., 20(8): 1439-50 (2011)).

ATG4B activity = test: GFP-LC3-RFP-ΔLC3 construct and flow cytometry (ATG4B-mediated LC3 processing); type: cell-based, human; conditions: recombinant LCN-2 1.0 μg/ml for 24 h; relative to control
Procedure: ARPE19 cells were cultured up to 60% confluency and then transfected with the GFP-LC3-RFP-ΔLC3 construct (Addgene, 84572), to assess ATG4B activity, using the manufacturer's protocol of the Lipofectamine 3000 Transfection Reagent (Thermo Fisher, L3000008) for 72 h (Ghosh et al., Commun. Biol., 4(1): 248 (2021)). The transfection efficiency was confirmed by visualizing the GFP and RFP signals in the transfected cells using a fluorescence microscope. This was followed by infection with an Ad-LCN-2 construct (as described above) for 48 h and treatment with recombinant human LCN-2 protein (R&D Systems, 1757-LC-050) at a dose of 1 μg/ml for 24 h in separate experiments. The cells were then scraped off the plates and were analyzed by flow cytometry using the LSR-II platform ([…]). The results were analyzed using the FlowJo software (v10.8) and the data from each group was represented as the ratio of median GFP fluorescence to RFP fluorescence (Kaizuka et al., Mol. Cell, 64(4): 835-849 (2016); Ghosh et al., Commun. Biol., 4(1): 248 (2021)).

[5] = biological target: T2, recombinant human ATG4B (Abcam, ab188707) (human, UniProt Q9Y4P1 1-393, limits assumed); test: thermal shift assay with sypro orange
T2 construct: Bought recombinant protein; also called human recombinant ATG4B; Autophagy Related 4B Cysteine Peptidase
T2 sequence (looked up): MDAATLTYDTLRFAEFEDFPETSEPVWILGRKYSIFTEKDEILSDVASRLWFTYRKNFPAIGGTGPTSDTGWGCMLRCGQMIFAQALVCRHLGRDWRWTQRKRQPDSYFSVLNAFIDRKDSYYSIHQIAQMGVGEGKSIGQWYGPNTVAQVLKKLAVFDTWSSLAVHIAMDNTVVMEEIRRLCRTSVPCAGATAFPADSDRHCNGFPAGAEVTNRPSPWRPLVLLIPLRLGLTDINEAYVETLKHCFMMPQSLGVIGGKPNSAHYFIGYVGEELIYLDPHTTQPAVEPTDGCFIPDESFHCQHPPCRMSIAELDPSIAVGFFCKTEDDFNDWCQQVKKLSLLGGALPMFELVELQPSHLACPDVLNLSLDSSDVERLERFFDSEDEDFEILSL
Procedure: FIGS. 2C-2D are line (2C) and dot plot (2D) graphs showing the results of a thermal shift assay. […] The melting temperature is reflective of the change in sypro orange fluorescence (arbitrary units) which was added (5 μM) to each reaction mixture. n=4. All values are Mean±SD. Significant change is indicated by *P<0.05.
as §1

## CCN(CC)CCCC(C)Nc1ccnc2cc(Cl)ccc12 (stereo not shown) [Chloroquine, chloroquine]
ARPE19 cells [1]
  number of puncta (autophagosomes): highly increased puncta

## CCc1ccc(NC(=O)Nc2c[nH]c3ccccc23)cc1 [Clone H-151]
Cryba1 KO RPE explants
  STING levels (Western blot): such changes were not observed
  cGAS levels (Western blot): such changes were not observed
Cryba1 KO RPE explants; vs vehicle (DMSO)
  NLRP3 levels (Western blot): significantly reduced; also recorded: rescued the levels of NLRP3 inflammasome expression
  SOD1 levels (Western blot): decreased
Cryba1 KO RPE explants; vs vehicle, listed as STING inhibitor
  ROS levels: decreased; also recorded: rescued

## COC(=O)c1ccc([C@@H]2c3[nH]c4ccccc4c3C[C@@H](C(=O)OC)N2C(=O)CCl)cc1 [RSL3, reference compound]
ARPE19 cells [2]; RSL3 alone as positive control, compared to control
  lipid peroxidation (liperfluo emission intensity): induced lipid peroxidation; also recorded: higher iperfluo emission intensity

## CCOC(=O)c1ccc(NC2CCCCC2)c(N)c1 [ferrostatin-1, reference compound]
ARPE19 cells [2]; ferrostatin-1 pre-treatment of FAC+Ad-LCN-2+Chloroquine (FLC) treated cells
  lipid peroxidation (liperfluo emission intensity): could rescue the lipid peroxidation; also recorded: abrogated the changes

B1: human recombinant LCN-2 (R&D Systems, 1757-LC-050) (other)
chain: QDSTSDLIPAPPLSKVPLQQNFQDNQFQGKWYVVGLAGNAILREDKDPQKMYATIYELKEDKSYNVTSVLFRKKKCDYWIRTFVPGCQPGEFTLGNIKSYPGLTSYLVRVVSTNYNQHAMVFFKKVSQNREYFKITLYGRTKELTSELKENFIRFSKSLGLPENHIVFPVPIDQCIDG
notes: Bought protein; also called human LCN-2 protein; recombinant human LCN-2
Human ATG4B [3]
  ATG4B activity (GST cleavage from LC3-GST, Western blot): Decreased GST cleavage; also recorded: could inhibit LC3 processing through the inhibition of Atg4b activity
Human ATG4B [4]; listed as human LCN-2 protein
  melting temperature (Tm) shift of ATG4B: increase in melting temperature
Human ATG4B [4]; listed as human recombinant LCN-2
  melting temperature (Tm) shift of ATG4B: consistent with binding between the two proteins
ATG4B activity
  GFP/RFP ratio (LC3 processing/lipidation): GFP fluorescence was increased; also recorded: increase in the GFP/RFP ratio
[5]
  binding result: binds
